Experiments:
HDAC5 = target: T1, HDAC5 (Homo sapiens, UniProt Q9UQL6); assay: Two-step fluorogenic deacetylase assay, recombinant HDAC5; format: biochemical; conditions: up to 50 µM
T1 construct: HDAC5 (αα 657–1123; cat # 50005); purchased BPS Bioscience (San Diego, CA) 50005
From the text: (§1) To assess the biochemical and cellular potency of 4b and its conversion products/metabolites, we utilized the two-step fluorogenic assay which measures the HDAC-mediated catalytic conversion of synthetic acetylated lysine substrates. In brief, on deacetylation of the substrates by HDAC activity, a protease site is unmasked which allows subsequent trypsin-mediated cleavage and release of the highly flourescent AMC molecules in a subsequent step of the assay. The substrates used were Lys_Ac_AMC (Bachem I-1875) for HDAC3 and (Ac)Arg-Gly-Lys(Ac) (Bachem I-1925) for HDAC1 and HDAC2. […] However, the relatively labile and sterically more demanding trifluoracetyl group is readily hydrolyzed by the catalytically less avid Class IIa enzymes, allowing measurement of Class IIa activity using the 2-step fluorogenic assay. […]
(§2) For evaluation of the class selectivity of the compounds, we assessed inhibition against purified recombinant human full length HDAC1 (cat# 50051), HDAC2 (cat# 50052), HDAC3-NcoR2 (cat# 50003) and HDAC8 (cat# 50008): as representative of Class I activity; catalytic domain HDAC4(αα 648–1057), HDAC5 (αα 657–1123; cat # 50005), HDAC7 (αα 518-end; cat # 50007) and HDAC9 (αα 604–1066; cat # 50009) activity: representing all Class IIa activity; and full length HDAC6 (cat#50006): representing Class IIb activity. […]

R6/2^300Q mice = test system: R6/2^300Q mice; design: method as in PMID 18829438; conditions: cited from earlier work
HDAC7 = target: T2, HDAC7 (Homo sapiens, UniProt Q8WUI4); assay: Two-step fluorogenic deacetylase assay, recombinant HDAC7; format: biochemical; conditions: up to 50 µM
T2 construct: HDAC7 (αα 518-end; cat # 50007); purchased BPS Bioscience (San Diego, CA) 50007
From the text: as §1, §2

[1] = Stability in serum albumin; format: in vitro ADME
Protocol: Incubations of test compound (5 µM initial concentration, n = 2) were carried out with pooled mouse plasma or BSA (45 mg/mL in 0.1 M phosphate buffered saline). The incubations were performed at 37°C. Samples (50 µL) were obtained from the incubation at 0, 10, 30, 120, 240, 360 and 1440 min, and added to 150 µL of acetonitrile containing carbamazepine as analytical internal standard to terminate the reaction. Samples were centrifuged and the supernatant fractions analysed by LC-MS/MS.

[2] = Permeability in MDCK cells; format: in vitro ADME; conditions: dog, pH 7.4
Protocol: The MDR1-MDCKII and wild type MDCKII cell lines (obtained from SOLVO Biotechnology) were cultured in accordance with the guidelines provided by SOLVO Biotechnology. Both wild-type MDCK and MDR1-MDCK cells were seeded at a cell density of 2.3×10^5 cells/well into 24-well Transwell plates and cultured for three days to form monolayers. Test compound was loaded into the donor compartments of the Transwell plate (24-well) bearing MDR1-MDCK or wild type MDCK monolayers. Test compound was added to either the apical or basolateral chambers of the Transwell plate assembly at a concentration of 10 µM in Hanks’ Balanced Salt Solution containing 25 mM HEPES (pH 7.4). Lucifer Yellow was added to the apical buffer in all wells and its permeation monitored to assess integrity of the cell layer. […] Concentrations of compound in the samples were measured by LC-MS/MS. Concentrations of LY in the samples were measured using a fluorescence plate reader. The apparent permeability (Papp) values of test compound were determined for both the apical to basal (A>B) and basal to apical (B>A) permeation and the efflux ratio (B>A: A>B) determined in both the wild type MDCK and MDR1-MDCK cells. Apparent permeability (Papp) values were calculated from the relationship: [drawing 5] […]

T2 sequence (Q8WUI4 518-952 limits assumed): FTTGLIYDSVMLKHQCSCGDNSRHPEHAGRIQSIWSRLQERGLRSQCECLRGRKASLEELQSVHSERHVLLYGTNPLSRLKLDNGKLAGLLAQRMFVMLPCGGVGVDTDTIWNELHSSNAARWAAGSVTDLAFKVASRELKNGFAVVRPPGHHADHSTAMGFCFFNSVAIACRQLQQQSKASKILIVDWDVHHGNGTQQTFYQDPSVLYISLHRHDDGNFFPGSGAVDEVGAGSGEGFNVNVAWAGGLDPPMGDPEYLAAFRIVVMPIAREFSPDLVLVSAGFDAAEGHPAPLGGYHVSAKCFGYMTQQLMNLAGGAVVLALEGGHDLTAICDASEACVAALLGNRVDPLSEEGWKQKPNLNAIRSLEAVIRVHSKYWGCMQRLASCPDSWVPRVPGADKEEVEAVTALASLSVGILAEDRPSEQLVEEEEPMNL
T1 sequence (Q9UQL6 656-1122): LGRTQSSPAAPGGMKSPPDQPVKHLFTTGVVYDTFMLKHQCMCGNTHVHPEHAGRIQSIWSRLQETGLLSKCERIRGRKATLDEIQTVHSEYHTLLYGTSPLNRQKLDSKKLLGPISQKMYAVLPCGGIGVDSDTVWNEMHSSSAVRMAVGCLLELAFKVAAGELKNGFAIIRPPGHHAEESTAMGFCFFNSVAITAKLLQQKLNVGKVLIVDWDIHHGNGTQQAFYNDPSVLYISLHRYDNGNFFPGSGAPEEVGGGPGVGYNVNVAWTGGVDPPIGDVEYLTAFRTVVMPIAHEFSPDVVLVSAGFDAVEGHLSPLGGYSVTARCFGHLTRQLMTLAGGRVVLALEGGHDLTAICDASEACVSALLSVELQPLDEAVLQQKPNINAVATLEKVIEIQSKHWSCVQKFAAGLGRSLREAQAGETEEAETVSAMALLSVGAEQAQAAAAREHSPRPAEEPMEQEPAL

Nc1ccccc1NC(=O)CCCCCC(=O)Nc1ccccc1 [Compound 4b]
activity against HDAC5 (HDAC5): No activity
gene expression abnormalities (R6/2^300Q mice; 150 mg/kg subcutaneous once daily for 3 days): successfully ameliorated gene expression abnormalities
motor performance and appearance in chronic efficacy study (R6/2^300Q mice; drinking water, estimated 150 mg/kg/day, from 4 months of age): improved motor performance
activity against HDAC7 (HDAC7): No activity
stability in serum albumin incubations [1]: stable
Papp A→B at 1 h, 10 µM [2]: 10.8 ×10⁻⁶ cm/s

Reference: PMC3433414, “Oral Administration of the Pimelic Diphenylamide HDAC Inhibitor HDACi 4b Is Unsuitable for Chronic Inhibition of HDAC Activity in the CNS In Vivo” (PLoS ONE, 2012)
